Assay results published in DBAASP.
Converted amounts (≈) assume the structure as drawn.

Experiments:
Test in all cases: ≥ marks a high value that may be exact or a test limit, other limits are often not marked, values filed in µg/mL are converted to µM
Escherichia coli 4530 = tested on: Escherichia coli 4530
[1] = tested on: Klebsiella pneumoniae 1625
[2] = tested on: Enterobacter cloacae 2524
[3] = tested on: Klebsiella pneumoniae 913
Acinetobacter baumannii = tested on: Acinetobacter baumannii
[4] = tested on: Escherichia coli ATCC 25922
[5] = tested on: Pseudomonas aeruginosa 4677
Escherichia coli 170 = tested on: Escherichia coli 170
[6] = tested on: Enterobacter cloacae 6780
[7] = tested on: Enterococcus faecalis WHO 14
[8] = tested on: Micrococcus luteus ATCC 4698
[9] = tested on: Acinetobacter calcoaceticus ATCC 2305-5
[10] = tested on: Pseudomonas aeruginosa ATCC 27853
[11] = tested on: Bacillus subtilis ICTA-07
[12] = tested on: Yersinia enterocolitica ATCC 9610
[13] = tested on: Staphylococcus aureus ATCC 25929
[14] = tested on: Staphylococcus aureus ATCC 25923
[15] = tested on: Salmonella enterica subsp. enterica serovar Typhimurium ATCC 14028
Escherichia coli ML-35 = tested on: Escherichia coli ML-35
[16] = tested on: Serratia marcescens ATCC 8100
[17] = tested on: Proteus mirabilis ATCC 25933
Pseudomonas putida = tested on: Pseudomonas putida
[18] = tested on: Shigella dysenteriae ATCC 9752
Candida albicans = tested on: Candida albicans
[19] = tested on: Staphylococcus epidermidis ATCC 12228
Serratia marcescens = tested on: Serratia marcescens
[20] = tested on: Klebsiella pneumoniae ATCC 10031
Escherichia coli = tested on: Escherichia coli
Saccharomyces cerevisiae = tested on: Saccharomyces cerevisiae
[21] = tested on: Pseudomonas aeruginosa ATCC 9027
[22] = tested on: Bacillus subtilis KCTC 1021

An MIC (Escherichia coli 4530) of at least 50 µM, an MIC [1] of at least 50 µM and an MIC [2] of 6.25 µM (≈ 14 µg/mL) were found for `CC[C@H](C)[C@H](N)C(=O)N[C@@H](C)C(=O)N[C@@H](CO)C(=O)N[C@@H](CCCCN)C(=O)N[C@H](C(=O)N[C@@H](C)C(=O)N[C@@H](CC(N)=O)C(=O)N[C@H](C(=O)N[C@H](C(=O)N[C@@H](CCC(N)=O)C(=O)N[C@@H](CCCCN)C(=O)N[C@@H](CC(C)C)C(=O)N[C@@H](CCCCN)C(=O)N[C@@H](CCCN=C(N)N)C(=O)N[C@@H](CCCCN)C(=O)N[C@@H](C)C(=O)N[C@@H](CCCCN)C(=O)N[C@@H](CC(N)=O)C(=O)N[C@@H](C)C(=O)N[C@H](C(=O)N[C@@H](C)C(=O)O)C(C)C)C(C)C)[C@@H](C)O)C(C)C` [IASKVANTVQKLKRKAKNAVA] in this work. For the same compound, the MIC [3] was 25 µM (≈ 56 µg/mL), the MIC (Acinetobacter baumannii) was 8.84 µM (≈ 19.8 µg/mL) and the MIC [4] was over 50 µM. It also gave an MIC [5] of at least 50 µM, an MIC (Escherichia coli 170) of 12.5 µM (≈ 28 µg/mL) and an MIC [6] of at least 50 µM.

An MIC [7] of at least 34 µM, an MIC [8] of at least 43 µM and an MIC [9] of at least 43 µM were found for `CC[C@H](C)[C@@H]1NC(=O)[C@H](CCCCN)NC(=O)[C@H](C(C)C)NC(=O)[C@H](CC(N)=O)NC(=O)[C@H](CC(=O)O)NC(=O)[C@@H]2CCCN2C(=O)[C@H](CC(C)C)NC(=O)CNC(=O)[C@H](Cc2ccc(O)cc2)NC(=O)[C@@H]2CSSC[C@@H]3NC(=O)[C@H](CCC(=O)O)NC(=O)[C@H]([C@@H](C)O)NC(=O)[C@H](CC(N)=O)NC(=O)[C@@H]4CSSC[C@H](NC(=O)[C@H](C)NC(=O)[C@@H]5CCCN5C(=O)[C@H](Cc5c[nH]c6ccccc56)NC(=O)[C@H](C)NC(=O)[C@H](CSSC[C@H](NC(=O)[C@H](CO)NC(=O)[C@H](Cc5ccc(O)cc5)NC(=O)[C@H](CCCCN)NC(=O)[C@@H](NC(=O)CNC(=O)[C@H](CCCN=C(N)N)NC(=O)[C@H](Cc5cnc[nH]5)NC(=O)[C@H](CCC(=O)O)NC(=O)[C@@H](NC(=O)[C@@H](NC(=O)[C@H](Cc5ccc(O)cc5)NC(=O)CNC(=O)[C@H](CC(=O)O)NC(=O)[C@@H](N)CCCCN)[C@@H](C)CC)[C@@H](C)CC)CSSC[C@@H](C(N)=O)NC(=O)[C@H](CCCCN)NC(=O)[C@H](CC(C)C)NC(=O)[C@H](CC(N)=O)NC(=O)[C@H](CC(N)=O)NC(=O)[C@H](CO)NC(=O)[C@H](CC(=O)O)NC(=O)[C@H](Cc5ccccc5)NC1=O)C(=O)N[C@@H](Cc1ccccc1)C(=O)N[C@@H](Cc1ccccc1)C(=O)NCC(=O)N[C@@H]([C@@H](C)O)C(=O)N[C@@H](CC(N)=O)C(=O)N[C@@H](CO)C(=O)N[C@@H](Cc1c[nH]c5ccccc15)C(=O)N4)NC(=O)[C@H](Cc1ccc(O)cc1)NC(=O)CNC(=O)[C@H](CO)NC(=O)[C@H](CO)NC(=O)CNC(=O)[C@H](CCCCN)NC(=O)[C@H](CCCCN)NC(=O)[C@H](CC(C)C)NC(=O)[C@H]([C@@H](C)O)NC3=O)C(=O)N[C@@H](Cc1c[nH]c3ccccc13)C(=O)N2` [KDGYIIEHRGCKYSCFFGTNSWCNTECTLKKGSSGYCAWPACWCYGLPDNVKIFDSNNLKC] in this work. The MIC [10] was 77 µM (≈ 533 µg/mL), the MIC [11] was 22 µM (≈ 152 µg/mL) and the MIC [12] was at least 49 µM.

An MIC [13] of at least 66 µM and an MIC [4] of 33 µM (≈ 63.9 µg/mL) were found for `CC(C)C[C@H](NC(=O)[C@H](CO)NC(=O)[C@@H]1CCCN1C(=O)[C@H](CO)NC(=O)[C@H](CC(C)C)NC(=O)[C@@H](N)CCCCN)C(=O)NCC(=O)N1CCC[C@H]1C(=O)N[C@H](C(=O)N[C@@H](CO)C(=O)N[C@@H](CCCCN)C(=O)NCC(=O)N[C@@H](CCCCN)C(=O)N[C@@H](CC(C)C)C(=O)N[C@@H](CC(C)C)C(=O)N[C@@H](C)C(=O)NCC(=O)N[C@@H](CCC(N)=O)C(=O)N[C@@H](CCCN=C(N)N)C(N)=O)C(C)C` [KLSPSLGPVSKGKLLAGQR] in this work.

An MIC [14] of over 128 µM, an MIC [4] of 64 µM (≈ 147 µg/mL) and an MIC [15] of 128 µM (≈ 294 µg/mL) were found for `CC(C)C[C@H](NC(=O)[C@H](CCCN=C(N)N)NC(=O)[C@@H]1CCCN1C(=O)[C@@H]1CCCN1C(=O)[C@H](CCCN=C(N)N)NC(=O)[C@@H]1CCCN1)C(=O)N1CCC[C@H]1C(=O)N[C@@H](CCCN=C(N)N)C(=O)N1CCC[C@H]1C(=O)N[C@@H](CCCN=C(N)N)C(=O)N1CCC[C@H]1C(=O)N[C@@H](CCCN=C(N)N)C(=O)N1CCC[C@H]1C(=O)N[C@@H](CC(C)C)C(=O)N1CCC[C@H]1C(=O)N[C@@H](Cc1ccccc1)C(=O)N1CCC[C@H]1C(=O)N[C@@H](CCCN=C(N)N)C(=O)N1CCC[C@H]1C(=O)O` [PRPPRLPRPRPRPLPFPRP] in this work. The MIC (Escherichia coli ML-35) was at least 64 µM and the MIC [16] was at least 128 µM.

An MIC [17] of at least 57.8 µM, an MIC (Pseudomonas putida) of 14.4 µM (≈ 50 µg/mL) and an MIC [18] of 7.22 µM (≈ 25 µg/mL) were found for `CC[C@H](C)[C@H](NC(=O)[C@H](CC(C)C)NC(=O)[C@H](CO)NC(=O)[C@H](Cc1ccccc1)NC(=O)[C@H](CC(C)C)NC(=O)[C@@H](N)CO)C(=O)N[C@@H](CCCCN)C(=O)N[C@@H](C)C(=O)NCC(=O)N[C@@H](C)C(=O)N[C@@H](CCCCN)C(=O)N[C@@H](Cc1ccccc1)C(=O)N[C@@H](CC(C)C)C(=O)NCC(=O)N[C@@H](CCCCN)C(=O)N[C@@H](CC(N)=O)C(=O)N[C@@H](CC(C)C)C(=O)N[C@@H](CC(C)C)C(=O)N[C@@H](CCCCN)C(=O)N[C@@H](CCC(N)=O)C(=O)NCC(=O)N[C@@H](C)C(=O)N[C@@H](CS)C(=O)N[C@@H](Cc1ccc(O)cc1)C(=O)N[C@@H](C)C(=O)N[C@@H](C)C(=O)N[C@H]1CSSC[C@@H](C(=O)O)NC(=O)[C@H](CCC(N)=O)NC(=O)[C@H](CCCCN)NC(=O)[C@H](CO)NC(=O)[C@H](C)NC(=O)[C@H](CCCCN)NC1=O` [SLFSLIKAGAKFLGKNLLKQGACYAACKASKQC] in this work. It also gave an MIC [8] of 1.44 µM (≈ 5 µg/mL), an MIC (Candida albicans) of over 57.8 µM and an MIC [19] of 14.4 µM (≈ 50 µg/mL). It also gave an MIC (Serratia marcescens) of at least 57.8 µM, an MIC [20] of 28.9 µM (≈ 99.9 µg/mL) and an MIC [15] of over 57.8 µM. It also gave an MIC (Escherichia coli) of 7.22 µM (≈ 25 µg/mL), an MIC (Saccharomyces cerevisiae) of at least 57.8 µM and an MIC [21] of 14.4 µM (≈ 50 µg/mL). It also gave an MIC [22] of 14.4 µM (≈ 50 µg/mL).
